This passage reports MIC results from ChEMBL document CHEMBL5223111, “Total synthesis and antibacterial evaluation of Empetroxepins A and B and related analogs” (2022).

≈ marks a conversion by molar mass, not a printed value.

Holding throughout (assay type): functional
One test relates to Escherichia coli. The test is described as follows: Antibacterial activity against Escherichia coli assessed as reduction in pathogen growth.
For the next test, the system named is Bacillus subtilis. In words: Antibacterial activity against Bacillus subtilis assessed as reduction in pathogen growth.
Another test deals with Staphylococcus aureus. In words: Antibacterial activity against Staphylococcus aureus assessed as reduction in pathogen growth.

What is called MIC is the least concentration at which growth counts as inhibited. For the compound `COc1cc2c(c(O)c1OC)Oc1ccccc1CC2`, the MIC in the test with Escherichia coli was above 256 µg/mL; in the test on Bacillus subtilis it was 256 µg/mL (≈ 940 µM); in the test on Staphylococcus aureus it was above 256 µg/mL.
As for `COc1c(O)cc2c(c1OC)Oc1ccccc1CC2`, the results for the MIC in the test on Escherichia coli, in the test on Bacillus subtilis and in the test with Staphylococcus aureus were above 256 µg/mL, 256 µg/mL (≈ 940 µM) and 256 µg/mL (≈ 940 µM), respectively.
With `COc1cc2c(c(OC)c1OC)Oc1ccc(NCc3ccccc3)cc1CC2`, the MIC with Escherichia coli, in the test with Bacillus subtilis and in the test on Staphylococcus aureus was above 256 µg/mL throughout.
Consider `COc1cc2c(c(OC)c1OC)Oc1ccc(Nc3ccccc3)cc1CC2`, for which the MIC in the test on Escherichia coli, in the test with Bacillus subtilis and with Staphylococcus aureus was above 256 µg/mL in each case.
For the compound `Oc1cc2c(c(O)c1O)Oc1ccc(Cl)cc1CC2`, the MIC in the test on Escherichia coli is above 256 µg/mL; with Bacillus subtilis, 128 µg/mL (≈ 459 µM); in the test with Staphylococcus aureus it was 64 µg/mL (≈ 230 µM).
In the same order, the values of `COC(=O)c1ccccc1-c1ccc2c(c1)CCc1cc(OC)c(OC)c(OC)c1O2` are above 256 µg/mL, above 256 µg/mL and above 256 µg/mL.
In the same order, the values of `COc1cc2c(c(OC)c1OC)Oc1ccc(Cl)cc1CC2` are above 256 µg/mL, above 256 µg/mL and above 256 µg/mL.
On the same counts, the results for `COc1ccc(-c2ccc3c(c2)CCc2cc(OC)c(OC)c(OC)c2O3)cc1` are above 256 µg/mL, above 256 µg/mL and above 256 µg/mL.
`COc1c(O)cc2c(c1O)Oc1ccc(-c3ccccc3)cc1CC2`: the MIC was above 256 µg/mL in the test with Escherichia coli, 16 µg/mL (≈ 47.9 µM) with Bacillus subtilis and 16 µg/mL (≈ 47.9 µM) with Staphylococcus aureus.
For the compound `COc1cc2c(c(OC)c1OC)Oc1c(Cl)cccc1CC2`, the MIC with Escherichia coli, with Bacillus subtilis and in the test on Staphylococcus aureus was above 256 µg/mL throughout.
Turning to `COc1cc2c(c(OC)c1OC)Oc1cccc(Cl)c1CC2`, the MIC in the test with Escherichia coli, with Bacillus subtilis and in the test on Staphylococcus aureus was above 256 µg/mL throughout.
`COc1c(O)cc2c(c1OC)Oc1ccc(Br)cc1CC2`: the MIC with Escherichia coli was above 256 µg/mL; in the test with Bacillus subtilis, 16 µg/mL (≈ 45.6 µM); in the test on Staphylococcus aureus, 16 µg/mL (≈ 45.6 µM).
As to `COc1cc2c(c(OC)c1OC)Oc1ccc(N3CCOCC3)cc1CC2`, the MIC with Escherichia coli, with Bacillus subtilis and in the test with Staphylococcus aureus was above 256 µg/mL in each case.
On to `COc1cc2c(c(OC)c1OC)Oc1ccc(-c3ccccc3)cc1CC2`, for which the MIC in the test with Escherichia coli, in the test on Bacillus subtilis and in the test on Staphylococcus aureus was above 256 µg/mL throughout.
`COc1cc2c(c(OC)c1OC)Oc1ccc(N3CCCCC3)cc1CC2`: the MIC in the test on Escherichia coli, in the test on Bacillus subtilis and with Staphylococcus aureus was above 256 µg/mL throughout.
In the case of `Oc1cc2c(c(O)c1O)Oc1ccccc1CC2`, the values for the MIC in the test with Escherichia coli, in the test with Bacillus subtilis and in the test with Staphylococcus aureus were above 256 µg/mL, 128 µg/mL (≈ 524 µM) and 64 µg/mL (≈ 262 µM), respectively.
Regarding `COc1c(O)cc2c(c1O)Oc1ccc(NCc3ccccc3)cc1CC2`, the MIC in the test with Escherichia coli was above 256 µg/mL; in the test on Bacillus subtilis it was 64 µg/mL (≈ 176 µM); with Staphylococcus aureus, 64 µg/mL (≈ 176 µM).
As for `Oc1cc2c(c(O)c1O)Oc1cccc(Cl)c1CC2`, the results for the MIC in the test with Escherichia coli, in the test with Bacillus subtilis and in the test on Staphylococcus aureus were 256 µg/mL (≈ 919 µM), 16 µg/mL (≈ 57.4 µM) and 8 µg/mL (≈ 28.7 µM), respectively.
In the same order, the values of `COc1ccc2c(c1)CCc1cc(O)c(OC)c(O)c1O2` are above 256 µg/mL, 128 µg/mL (≈ 444 µM) and 128 µg/mL (≈ 444 µM).
In the same order, the values of `COc1c(O)cc2c(c1O)Oc1ccc(O)cc1CC2` are above 256 µg/mL, 256 µg/mL (≈ 933 µM) and 256 µg/mL (≈ 933 µM).
In the same order, the values of `COc1cc2c(c(OC)c1OC)Oc1ccc(C)cc1CC2` are above 256 µg/mL, above 256 µg/mL and above 256 µg/mL.
As to `COc1c(O)cc2c(c1O)Oc1ccc(N3CCOCC3)cc1CC2`, the MIC was above 256 µg/mL with Escherichia coli, 256 µg/mL (≈ 746 µM) in the test on Bacillus subtilis and 256 µg/mL (≈ 746 µM) in the test on Staphylococcus aureus.
In the case of `COc1c(O)cc2c(c1O)Oc1ccc(Nc3ccccc3)cc1CC2`, the MIC in the test on Escherichia coli was above 256 µg/mL; with Bacillus subtilis, 32 µg/mL (≈ 91.6 µM); in the test on Staphylococcus aureus it was 32 µg/mL (≈ 91.6 µM).
For `Cc1ccc2c(c1)CCc1cc(O)c(O)c(O)c1O2`, the MIC stood at 256 µg/mL (≈ 991 µM) with Escherichia coli, 32 µg/mL (≈ 124 µM) in the test on Bacillus subtilis and 16 µg/mL (≈ 61.9 µM) in the test on Staphylococcus aureus.
Consider `CCN(CC)c1ccc2c(c1)CCc1cc(OC)c(OC)c(OC)c1O2`, for which the MIC in the test on Escherichia coli, in the test on Bacillus subtilis and in the test on Staphylococcus aureus was above 256 µg/mL throughout.
Turning to `Oc1cc2c(c(O)c1O)Oc1c(Cl)cccc1CC2`, the results for the MIC in the test with Escherichia coli, in the test on Bacillus subtilis and in the test on Staphylococcus aureus were above 256 µg/mL, 32 µg/mL (≈ 115 µM) and 32 µg/mL (≈ 115 µM), respectively.
Take `COc1ccc2c(c1)CCc1cc(OC)c(OC)c(OC)c1O2`: the MIC in the test on Escherichia coli, in the test on Bacillus subtilis and with Staphylococcus aureus was above 256 µg/mL throughout.
For the compound `COc1c(O)cc2c(c1O)Oc1ccccc1CC2`, the MIC in the test on Escherichia coli was above 256 µg/mL; in the test with Bacillus subtilis it was 256 µg/mL (≈ 991 µM); in the test with Staphylococcus aureus it was 256 µg/mL (≈ 991 µM).
`COc1cc2c(c(O)c1OC)Oc1ccc(Br)cc1CC2`: the values for the MIC with Escherichia coli, in the test with Bacillus subtilis and with Staphylococcus aureus were above 256 µg/mL, 32 µg/mL (≈ 91.1 µM) and 32 µg/mL (≈ 91.1 µM), respectively.
Take `COc1cc2c(c(OC)c1OC)Oc1ccccc1CC2`: the MIC with Escherichia coli, in the test with Bacillus subtilis and in the test with Staphylococcus aureus was above 256 µg/mL each time.
As to `CCN(CC)c1ccc2c(c1)CCc1cc(O)c(OC)c(O)c1O2`, the figures for the minimal inhibitory concentration (MIC) in the test on Escherichia coli, in the test with Bacillus subtilis and in the test on Staphylococcus aureus were above 256 µg/mL, 64 µg/mL (≈ 194 µM) and 64 µg/mL (≈ 194 µM), respectively.
Consider `COc1cc2c(c(OC)c1OC)Oc1ccc(Br)cc1CC2`, for which the MIC in the test on Escherichia coli, in the test on Bacillus subtilis and in the test with Staphylococcus aureus was above 256 µg/mL throughout.
Regarding `COc1cc2c(c(OC)c1OC)Oc1ccc(N)cc1CC2`, the MIC with Escherichia coli, in the test with Bacillus subtilis and with Staphylococcus aureus was above 256 µg/mL each time.
With `Oc1cc2c(c(O)c1O)Oc1ccc(Br)cc1CC2`, the values for the MIC with Escherichia coli, with Bacillus subtilis and with Staphylococcus aureus were above 256 µg/mL, 8 µg/mL (≈ 24.8 µM) and 16 µg/mL (≈ 49.5 µM), respectively.
`COc1c(O)cc2c(c1O)Oc1ccc(Br)cc1CC2`: the values for the MIC with Escherichia coli, in the test on Bacillus subtilis and with Staphylococcus aureus were above 256 µg/mL, 16 µg/mL (≈ 47.5 µM) and 16 µg/mL (≈ 47.5 µM), respectively.
Turning to `COc1c(O)cc2c(c1O)Oc1ccc(N3CCCCC3)cc1CC2`, the MIC in the test with Escherichia coli is above 256 µg/mL; in the test with Bacillus subtilis, 64 µg/mL (≈ 187 µM); in the test with Staphylococcus aureus it was 128 µg/mL (≈ 375 µM).
With `O=C(N[C@H](CO)[C@H](O)c1ccc([N+](=O)[O-])cc1)C(Cl)Cl` [CHLORAMPHENICOL], the MIC was determined as 8 µg/mL (≈ 24.8 µM) in the test on Escherichia coli, 4 µg/mL (≈ 12.4 µM) in the test on Bacillus subtilis and 8 µg/mL (≈ 24.8 µM) in the test on Staphylococcus aureus.
